The source of these data is patent EP0512042B1, “GLP-1 ANALOGS USEFUL FOR DIABETES TREATMENT” (BUCKLEY, Douglas I., priority 1990, dated 1998).

The test system of one series is RIN 1046-38 cells. On the procedure: An additional test for potency of the compounds of the invention measures their ability to stimulate cAMP production in RIN 1046-38 cells. This assay can be conducted as follows:
On day 1, 5 x 10^5 RIN 1046-38 cells (Drucker, D.J., et al., Proc Natl Acad Sci USA (1987) 84:3434-3438) are seeded into individual wells of 6-well dishes with 2.5 mL M199 culture medium. On day 4, cells are re-fed with fresh medium and on day 5 the assay is performed. At this time there are ~2.0-2.5 x 10^6 cells per well. Assays are only performed on cell passage <24.
At time -60 min, monolayers are washed twice with 2.5 mL PBS, and medium is changed to 1.0 mL of DMEM medium plus 4.5 g/l glucose and 0.1% BSA (assay medium). At 0 time, medium is aspirated and fresh assay medium, 1.0 mL, containing test compound is added. Test compound is added in 50 ul volume of PBS plus 0.1% BSA; controls are added in vehicle alone. Incubation is continued for 0 to 60 min.
At termination, conditioned medium and monolayer are harvested to measure both extra- and intracellular cAMP content. For extracellular measurement, medium is removed and centrifuged to remove any cellular debris. For intracellular determination, after medium removal, 1.0 mL of ice cold 95% ethanol is added to monolayer. Cells are collected by scraping, lysed by two cycles of quick freeze/thawing using liquid N2, and cell debris then removed by centrifugation. Aliquots (1/40th well content) of conditioned medium and ethanol cell extract are measured in duplicate for cAMP levels using an RIA kit by the acetylated protocol.
Insulin secretion can also be measured by the method described by Holst, J.J., et al. FEBS Letters (1987) 211:169-174 (supra). Also useful as an assay for insulinotropic effect is the measurement of stimulation of adenylate cyclase in the RIN 1046-38 cell line. Drucker, D.J. et al., Proc Natl Acad Sci USA (1987) 84:3434-3438 (supra).

A short description of series [1]: resistance to degradation in plasma, assay by RP-HPLC. The settings on record: incubation in plasma for 60 minutes.
Protocol: In all assays, the plasma is prepared by collecting blood into heparinized tubes, placing the tubes on ice and centrifuging at about 3,000 rpm for 10 minutes in a tabletop centrifuge. The separated plasma is stored at 4°C.
In this assay, the analog is added to plasma for various times and recovered similarly to the method described above for radiolabel sequencing analysis. Specifically, the analog at a concentration of 100 nM in RIA buffer is spiked into 1 mL plasma to a final concentration of 1 nM and after incubation in 37°C circulating water bath for various preset times, the reaction is stopped by bringing the plasma to 0.1% (w/v) in bacitracin.
The peptides are then purified by Sep-Pak extraction as described above. The eluates are concentrated to about 1 mL on a Speed-vac, diluted with 1 mL distilled water, frozen at 80°C and lyophilized overnight. The powder is resuspended in 0.5 mL Buffer C (0.1% TFA in water) per mL starting plasma and 0.25 mL are injected on a Hewlett-Packard 1090L liquid chromatograph using an Alltech* C18 column (0.45 x 25 cm; 10 µm particle size) with a Brownlee 2 cm C18 guard column. The extraction is monitored at OD214 throughout the run and the solvent flow rate was 1 mL/minute. A gradient between Buffer C and Buffer D (0.1% TFA in acetonitrile) is set up over a 40 minute run time. The gradient starts at 35% D is held for the first 2 minutes after injection and then increased to 42% D over 24 minutes. The gradient is then increased to 60% D over the next two minutes, held at this level for 2 minutes and returned to 35% D over the next 2 minutes. The %D remains at 35% for the remaining 8 minutes of the run. Fractions are collected at 0.5 minute intervals for the first 30 minutes of each run and dried in a Speed-vac.

Like-named read-outs stand apart in the source and are kept apart here. Ends that are not written are not given here. Some results are limits rather than exact numbers.

For the molecule `CC[C@H](C)[C@H](NC(=O)[C@H](Cc1ccccc1)NC(=O)[C@H](CCC(=O)O)NC(=O)[C@H](CCCCN)NC(=O)[C@H](C)NC(=O)[C@H](C)NC(=O)[C@H](CCC(N)=O)NC(=O)CNC(=O)[C@H](CCC(=O)O)NC(=O)[C@H](CC(C)C)NC(=O)[C@H](Cc1ccc(O)cc1)NC(=O)[C@H](CO)NC(=O)[C@H](CO)NC(=O)[C@@H](NC(=O)[C@H](CC(=O)O)NC(=O)[C@H](CO)NC(=O)[C@@H](NC(=O)[C@H](Cc1ccccc1)NC(=O)[C@@H](NC(=O)CNC(=O)[C@H](CCC(=O)O)NC(=O)[C@H](C)NC(=O)[C@@H](N)Cc1ccc(O)cc1)[C@@H](C)O)[C@@H](C)O)C(C)C)C(=O)N[C@@H](C)C(=O)N[C@@H](Cc1c[nH]c2ccccc12)C(=O)N[C@@H](CC(C)C)C(=O)N[C@H](C(=O)N[C@@H](CCCCN)C(=O)NCC(=O)N[C@@H](CCCNC(=N)N)C(=O)NCC(=O)O)C(C)C` [(Y)^7-GLP-1(7-37)], the “ED50 nM Duplicate Assays” value in the series with RIN 1046-38 cells turned out to be 5.0 nM. Moreover, the “Resistance to Degradation” value in series [1] is “-”. For the molecule `CC[C@H](C)[C@H](NC(=O)[C@H](Cc1ccccc1)NC(=O)[C@H](CCC(=O)O)NC(=O)[C@H](CCCCN)NC(=O)[C@H](C)NC(=O)[C@H](C)NC(=O)[C@H](CCC(N)=O)NC(=O)CNC(=O)[C@H](CCC(=O)O)NC(=O)[C@H](CC(C)C)NC(=O)[C@H](Cc1ccc(O)cc1)NC(=O)[C@H](CO)NC(=O)[C@H](CO)NC(=O)[C@@H](NC(=O)[C@H](CC(=O)O)NC(=O)[C@H](CO)NC(=O)[C@@H](NC(=O)[C@H](Cc1ccccc1)NC(=O)[C@@H](NC(=O)CNC(=O)[C@H](CCC(=O)O)NC(=O)[C@H](C)NC(=O)[C@H](CCCCN)NC(C)=O)[C@@H](C)O)[C@@H](C)O)C(C)C)C(=O)N[C@@H](C)C(=O)N[C@@H](Cc1c[nH]c2ccccc12)C(=O)N[C@@H](CC(C)C)C(=O)N[C@H](C(=O)N[C@@H](CCCCN)C(=O)NCC(=O)N[C@@H](CCCNC(=N)N)C(=O)NCC(=O)O)C(C)C` [(N-acetyl-K)^7 GLP-1 (7-37)], in series [1], the “Resistance to Degradation” value was “+”. As to `CC[C@H](C)[C@H](NC(=O)[C@H](Cc1ccccc1)NC(=O)[C@H](CCC(=O)O)NC(=O)[C@H](CCCCN)NC(=O)[C@H](C)NC(=O)[C@H](C)NC(=O)[C@H](CCC(N)=O)NC(=O)CNC(=O)[C@H](CCC(=O)O)NC(=O)[C@H](CC(C)C)NC(=O)[C@H](Cc1ccc(O)cc1)NC(=O)[C@H](CO)NC(=O)[C@H](CO)NC(=O)[C@@H](NC(=O)[C@H](CC(=O)O)NC(=O)[C@H](CO)NC(=O)[C@@H](NC(=O)[C@H](Cc1ccccc1)NC(=O)[C@@H](NC(=O)CNC(=O)[C@H](CCC(=O)O)NC(=O)[C@H](C)NC(=O)[C@H](Cc1c[nH]cn1)NC(C)=O)[C@@H](C)O)[C@@H](C)O)C(C)C)C(=O)N[C@@H](C)C(=O)N[C@@H](Cc1c[nH]c2ccccc12)C(=O)N[C@@H](CC(C)C)C(=O)N[C@H](C(=O)N[C@@H](CCCCN)C(=O)NCC(=O)N[C@@H](CCCNC(=N)N)C(=O)NCC(=O)O)C(C)C` [(N-acetyl-H) ^7-GLP-1(7-37), (N-acetyl-H)^7-GLP-1(7-37)], the “ED50 nM Duplicate Assays” value in the series with RIN 1046-38 cells is 15.5 nM. Moreover, the “Resistance to Degradation” value in series [1] is given as “+”. On to “GLP-1(3-37) (EFERHAEGTFTSDVSSYLEGQAAKEFIAWLVKGRG; Glucagon-like peptide 1; UniProt P01275 94-128, looked up, fragment) [reference compound]”, for which the “ED50 nM Duplicate Assays” value in the series with RIN 1046-38 cells (first of the duplicate assays) is 70 nM; in the series on RIN 1046-38 cells (second of the duplicate assays) it was 81 nM. The matching figures for “GLP-1(5-37) (ERHAEGTFTSDVSSYLEGQAAKEFIAWLVKGRG; Glucagon-like peptide 1; UniProt P01275 96-128, looked up, fragment) [reference compound]”: 150 nM and 750 to 970 nM. As for `CC[C@H](C)[C@H](NC(=O)[C@H](Cc1ccccc1)NC(=O)[C@H](CCC(=O)O)NC(=O)[C@H](CCCCN)NC(=O)[C@H](C)NC(=O)[C@H](C)NC(=O)[C@H](CCC(N)=O)NC(=O)CNC(=O)[C@H](CCC(=O)O)NC(=O)[C@H](CC(C)C)NC(=O)[C@H](Cc1ccc(O)cc1)NC(=O)[C@H](CO)NC(=O)[C@H](CO)NC(=O)[C@@H](NC(=O)[C@H](CC(=O)O)NC(=O)[C@H](CO)NC(=O)[C@@H](NC(=O)[C@H](Cc1ccccc1)NC(=O)[C@@H](NC(=O)CNC(=O)[C@H](CCC(=O)O)NC(=O)[C@H](C)NC(=O)[C@H](Cc1c[nH]cn1)NC(C)C)[C@@H](C)O)[C@@H](C)O)C(C)C)C(=O)N[C@@H](C)C(=O)N[C@@H](Cc1c[nH]c2ccccc12)C(=O)N[C@@H](CC(C)C)C(=O)N[C@H](C(=O)N[C@@H](CCCCN)C(=O)NCC(=O)N[C@@H](CCCNC(=N)N)C(=O)NCC(=O)O)C(C)C` [(N-isopropyl-H) ^7-GLP-1(7-37), (N-isopropyl-H)^7-GLP-1(7-37)], the “ED50 nM Duplicate Assays” value in the series with RIN 1046-38 cells is recorded as 15.5 nM. In series [1], the “Resistance to Degradation” value is “+”. On the same counts, the results for “HSQGTFTSDYSKYLDGQAAKEFIAWLVKGRG [(S)^8(Q)^9(Y)^16(K)^18(D)^21-GLP-1(7-37)]” are 0.31 nM and “-”. On to `CC[C@H](C)[C@H](NC(=O)[C@H](Cc1ccccc1)NC(=O)[C@H](CCC(=O)O)NC(=O)[C@H](CCCCN)NC(=O)[C@H](C)NC(=O)[C@H](C)NC(=O)[C@H](CCC(N)=O)NC(=O)CNC(=O)[C@H](CCC(=O)O)NC(=O)[C@H](CC(C)C)NC(=O)[C@H](Cc1ccc(O)cc1)NC(=O)[C@H](CO)NC(=O)[C@H](CO)NC(=O)[C@@H](NC(=O)[C@H](CC(=O)O)NC(=O)[C@H](CO)NC(=O)[C@@H](NC(=O)[C@H](Cc1ccccc1)NC(=O)[C@@H](NC(=O)CNC(=O)[C@H](CCC(N)=O)NC(=O)[C@H](C)NC(=O)[C@@H](N)Cc1c[nH]cn1)[C@@H](C)O)[C@@H](C)O)C(C)C)C(=O)N[C@@H](C)C(=O)N[C@@H](Cc1c[nH]c2ccccc12)C(=O)N[C@@H](CC(C)C)C(=O)N[C@H](C(=O)N[C@@H](CCCCN)C(=O)NCC(=O)N[C@@H](CCCNC(=N)N)C(=O)NCC(=O)O)C(C)C` [(Q)^9 GLP-1 (7-37)], for which the “Resistance to Degradation” value in series [1] is reported as “-”.

For “gastric inhibitory peptide [GIP, reference compound]”, the “ED50 nM Duplicate Assays” value in the series on RIN 1046-38 cells (first of the duplicate assays) is listed as 10.0 nM; with RIN 1046-38 cells (second of the duplicate assays) it was 37.5 nM.

Take GLP-1(1-37) [reference compound]: the results for the “ED50 nM Duplicate Assays” value in the series with RIN 1046-38 cells (first of the duplicate assays) and in the series with RIN 1046-38 cells (second of the duplicate assays) were over 1000 nM and 2900 nM, respectively. On the same counts, the results for “GLP-1(4-37) (FERHAEGTFTSDVSSYLEGQAAKEFIAWLVKGRG; Glucagon-like peptide 1; UniProt P01275 95-128, looked up, fragment) [reference compound]” are 130 nM and 200 nM. Consider `CC[C@H](C)[C@H](NC(=O)[C@H](Cc1ccccc1)NC(=O)[C@H](CCC(=O)O)NC(=O)[C@H](CCCCN)NC(=O)[C@H](C)NC(=O)[C@H](C)NC(=O)[C@H](CCC(N)=O)NC(=O)CNC(=O)[C@H](CCC(=O)O)NC(=O)[C@H](CC(C)C)NC(=O)[C@H](Cc1ccc(O)cc1)NC(=O)[C@H](CO)NC(=O)[C@H](CO)NC(=O)[C@@H](NC(=O)[C@H](CC(=O)O)NC(=O)[C@H](CO)NC(=O)[C@@H](NC(=O)[C@H](Cc1ccccc1)NC(=O)[C@@H](NC(=O)CNC(=O)[C@H](CCC(=O)O)NC(=O)[C@H](C)NC(=O)[C@@H](N)CCCCN)[C@@H](C)O)[C@@H](C)O)C(C)C)C(=O)N[C@@H](C)C(=O)N[C@@H](Cc1c[nH]c2ccccc12)C(=O)N[C@@H](CC(C)C)C(=O)N[C@H](C(=O)N[C@@H](CCCCN)C(=O)NCC(=O)N[C@@H](CCCNC(=N)N)C(=O)NCC(=O)O)C(C)C` [(K)^7-GLP-1(7-37)], for which the “ED50 nM Duplicate Assays” value in the series with RIN 1046-38 cells came out at 350.0 nM. Moreover, the “Resistance to Degradation” value in series [1] was “-”.

GLP-1(7-37): the “ED50 nM Duplicate Assays” value is 0.16 nM in the series with RIN 1046-38 cells (first of the duplicate assays) and 0.25 nM with RIN 1046-38 cells (second of the duplicate assays).
